≈ marks a conversion by molar mass, not a printed value.
Legend:
Format in all cases: cell-based
[1] = tested on: Staphylococcus aureus 1199B (overexpression of the NorA efflux pump); assay: Efflux pump inhibition assay with sub-inhibitory ciprofloxacin
Protocol: (§1) The efflux pump inhibition potential of the bis-indolic derivatives was tested using two steps. In a first step, the intrinsic antibacterial activity of the compounds was assayed against the following strains:
(§2) The following experimental protocol was used: indolic derivatives (initially solubilised in DMSO at 10 mg/mL) were dispensed in a 96-wells microplate by two fold serial dilutions in Muller-Hinton medium (MH, Bio Rad) using a Biomek 2000 (Beckman) handling robot. 100 μL of the bacterial inoculum (an overnight culture at 37° C. in 5 mL MH diluted 100-fold) was then added in each well. The total volume was 200 μL in each well and the final bacteria concentration 10^6 CFU/mL (CFU: colony forming unit). The highest final indolic derivative concentration was 128 mg/L. Growth was assayed with a microplate reader by monitoring absorption at 620 nm after 1, 2, 5, 7 and 24 h incubation at 37° C. In addition, the plates were read visually after 24 hours incubation. Cultures containing 5 μL DMSO were used as growth controls. In addition, two controls containing a sub-inhibitory or a inhibitory antibiotic concentration for the tested strain were performed. The antibiotics used were ampicillin (0.5 and 32 μg/mL) for E. coli, kanamycin (0.5 and 16 μg/mL) for S. aureus ATCC 25923, ciprofloxacin (4 and 64 mg/L) for S. aureus 1199B, ciprofloxacin (0.5 and 2 mg/L) for S. aureus K2378. All experiments were performed in duplicate.
(§3) Efflux pump inhibition assays were then performed against resistant Staphylococcus aureus strains SA 1199B and SA K2378 for bis-indolic derivatives. […] The minimal inhibitory concentration (MIC) of the bis-indolic compound allowing a complete inhibition of the bacterial growth in the presence of ciprofloxacin was determined.

[2] = tested on: Klebsiella pneumoniae ATCC 35657; assay: MIC microdilution (Table I-1); details: ATCC35657, read after 18 hours, read-out: MIC
How it was run: (§4)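 CLSI broth microdilution in Mueller Hinton broth, final inoculum 5×10^5 CFU/ml. Compounds tested as two-fold serial dilutions, 0.50–128 mg/L final, plates incubated at 37 °C in ambient air; MIC read as lowest concentration inhibiting growth.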

[3] = tested on: S. agalactiae (group B) ATCC 12400; assay: MIC microdilution (Table I-1); details: Streptococcus agalactiae, ATCC12400, read after 18 hours, read-out: MIC
How it was run: as §4

E. faecalis ATCC 29212 = assay: MIC microdilution (Table I-1); details: Enterococcus faecalis, ATCC29212, read after 18 hours, read-out: MIC
How it was run: as §4

S. pneumoniae ATCC 49619 = assay: MIC microdilution (Table I-1); details: Streptococcus pneumoniae, ATCC49619, read after 18 hours
How it was run: as §4

[4] = tested on: Staphylococcus warneri (CHUG-Swar1); assay: MIC, Staphylococcus panel (Table I-2); details: 18 h, 4% DMSO
Protocol: (§5) We used the previously described protocol, with subtle modifications. The microdilution method recommended by the Clinical and Laboratory Standard Institute [M07-A9, Vol. 32, N^o 2] was used. The activity of bis-indolic compounds was tested against 35 bacterial strains belonging to 12 different Staphylococcus species.
(§6) Bacterial inocula were prepared in Mueller Hinton broth (MH2, BioMerieux, Marcy L'Etoile, France). They were dispensed in 96 well microtiter plates (5×10^5 CFU/ml of final inoculum, 192 μL per well). Indolic compounds diluted in pure DMSO (8 μL per well, concentrated 25 times) were added to the wells as to obtain two-fold serial concentrations (0.5-32 mg/L of final concentrations). The final concentration of DMSO was 4% in each well.
(§7) To avoid cross-contaminations in microtiter plates, one row was left blank between each strain tested. Microplates were incubated for 18 h at 37° C. in ambient air or at 37° C. in 5% CO2 enriched atmosphere for fastidious species. Then MICs were read visually and, in case of visual reading difficulties, confirmed using a spectrophotometer at a wavelength of 630 nm (BioTek® EL808 Absorbance Microplate Reader). MICs corresponded to the minimum bis-indolic compound concentration that allowed complete visual growth inhibition of bacteria. Drug-free cultures served as growth controls.
(§8) Coagulase-negative Staphylococcus strains included three reference strains purchased from CRBIP: a methicillin-susceptible S. epidermidis strain (ATCC 12228), a methicillin-resistant S. epidermidis strain (ATCC 49461), and a methicillin-susceptible S. sciuri strain (ATCC 29061). We also used clinical strains belonging to the following coagulase-negative Staphylococcus species: S. auricularis (two strains), S. warneri (five strains), S. capitis (five strains), S. haemolyticus (four strains), S. hominis (seven strains), S. cohnii (two strains), and S. saprophyticus, S. caprae and S. simulans (one strain each). Identification of the clinical strains was obtained using VITEK® 2 System (Biomérieux).

[5] = tested on: Staphylococcus capitis (CHUG-Scap5); assay: MIC, Staphylococcus panel (Table I-2); details: 18 h, 4% DMSO
Protocol: as §5, §6, §7, §8

[6] = tested on: Staphylococcus capitis (CHUG-Scap7); assay: MIC, Staphylococcus panel (Table I-2); details: 18 h, 4% DMSO
Protocol: as §5, §6, §7, §8

[7] = tested on: Staphylococcus capitis (CHUG-Scap1); assay: MIC, Staphylococcus panel (Table I-2); details: 18 h, 4% DMSO
Protocol: as §5, §6, §7, §8

[8] = tested on: Staphylococcus auricularis (CHUG-Saur1); assay: MIC, Staphylococcus panel (Table I-2); details: 18 h, 4% DMSO
Protocol: as §5, §6, §7, §8

[9] = tested on: Staphylococcus hominis (CHUG-Shom3); assay: MIC, Staphylococcus panel (Table I-2); details: 18 h, 4% DMSO
Protocol: as §5, §6, §7, §8

[10] = tested on: Staphylococcus warneri (CHUG-Swar7); assay: MIC, Staphylococcus panel (Table I-2); details: 18 h, 4% DMSO
Protocol: as §5, §6, §7, §8

[11] = tested on: Staphylococcus hominis (CHUG-Shom8); assay: MIC, Staphylococcus panel (Table I-2); details: 18 h, 4% DMSO
Protocol: as §5, §6, §7, §8

[12] = tested on: Staphylococcus warneri (CHUG-Swar5); assay: MIC, Staphylococcus panel (Table I-2); details: 18 h, 4% DMSO
Protocol: as §5, §6, §7, §8

[13] = tested on: Staphylococcus aureus K2378 (overexpresses the efflux pump NorA from a multicopy plasmid); assay: Efflux pump inhibition assay with sub-inhibitory ciprofloxacin
Protocol: as §1, §2, §3

[14] = in the presence of ciprofloxacin 4 mg/L (MIC/4)
[15] = in the presence of ciprofloxacin 0.25 mg/L (MIC/8)

CC(C)(C)OC(=O)NCC(NC(=O)C(=O)c1c[nH]c2ccccc12)c1c[nH]c2ccccc12 (stereo not drawn) [Compound 2, tert-Butyl(2-(2-(1H-indol-3-yl)-2-oxoacetamido)-2-(1H-indol-3-yl)ethyl)carbamate]
CMI, mg/L (Ciprofloxacin concentration, mg/L) ([1]; in the presence of ciprofloxacin 2 mg/L (MIC/8)): 2 (2) mg/L
CMI, mg/L (Ciprofloxacin concentration, mg/L) [1, 14]: 0.5 (4) mg/L
MIC [2]: > 128 µg/mL
MIC [3]: > 128 µg/mL
MIC (E. faecalis ATCC 29212): > 128 µg/mL
MIC (S. pneumoniae ATCC 49619): > 128 µg/mL

CC(C)(C)OC(=O)NCC(NC(=O)C(=O)c1c[nH]c2ccc(Br)cc12)c1c[nH]c2ccc(Br)cc12 (stereo not drawn) [Compound 4, tert-Butyl(2-(5-bromo-1H-indol-3-yl)-2-(2-(5-bromo-1H-indol-3-yl)-2-oxoacetamido)ethyl) carbamate]
MIC [2]: > 128 µg/mL
MIC [4]: 1 µg/mL (≈ 1.65 µM)
MIC [5]: 1 µg/mL (≈ 1.65 µM)
MIC [6]: 1 µg/mL (≈ 1.65 µM)
MIC [7]: 1 µg/mL (≈ 1.65 µM)
MIC [8]: 1 µg/mL (≈ 1.65 µM)
MIC [9]: 1 µg/mL (≈ 1.65 µM)
MIC [10]: 1 µg/mL (≈ 1.65 µM)
MIC [11]: 1 µg/mL (≈ 1.65 µM)
MIC [12]: 1 µg/mL (≈ 1.65 µM)

CC(NC(=O)C(=O)c1c[nH]c2ccc(Br)cc12)c1c[nH]c2ccc(Br)cc12 (stereo not drawn) [Compound 5, 2-(5-Bromo-1H-indol-3-yl)-N-(1-(5-bromo-1H-indol-3-yl)ethyl)-2-oxoacetamide]
MIC [2]: > 128 µg/mL
MIC [3]: 64 µg/mL (≈ 131 µM)
MIC (E. faecalis ATCC 29212): 128 µg/mL (≈ 262 µM)
MIC (S. pneumoniae ATCC 49619): 32 µg/mL (≈ 65.4 µM)
MIC [4]: 2 µg/mL (≈ 4.09 µM)
MIC [5]: 2 µg/mL (≈ 4.09 µM)
MIC [6]: 2 µg/mL (≈ 4.09 µM)
MIC [7]: 2 µg/mL (≈ 4.09 µM)
MIC [8]: 1 µg/mL (≈ 2.04 µM)
MIC [9]: 2 µg/mL (≈ 4.09 µM)
MIC [10]: 2 µg/mL (≈ 4.09 µM)
MIC [11]: 2 µg/mL (≈ 4.09 µM)
MIC [12]: 1 µg/mL (≈ 2.04 µM)

O=C(C(=O)N1CCCCC1c1c[nH]c2ccccc12)c1c[nH]c2ccccc12 (stereo not drawn) [Compound 6a, 1-(2-(1H-Indol-3-yl)piperidin-1-yl)-2-(1H-indol-3-yl)ethane-1,2-dione]
CMI, mg/L (Ciprofloxacin concentration, mg/L) [13, 15]: 8 (0.25) mg/L
CMI, mg/L (Ciprofloxacin concentration, mg/L) [1, 14]: <0.125 (4) mg/L
MIC [2]: > 128 µg/mL
MIC [3]: > 128 µg/mL
MIC (E. faecalis ATCC 29212): > 128 µg/mL
MIC (S. pneumoniae ATCC 49619): > 128 µg/mL

O=C(C(=O)N1CCOCC1c1c[nH]c2ccccc12)c1c[nH]c2ccccc12 (stereo not drawn) [Compound 6b, 1-(3-(1H-Indol-3-yl)morpholino)-2-(1H-indol-3-yl)ethane-1,2-dione]
CMI, mg/L (Ciprofloxacin concentration, mg/L) [13, 15]: 16 (0.25) mg/L
CMI, mg/L (Ciprofloxacin concentration, mg/L) [1, 14]: 0.5 (4) mg/L
MIC [2]: > 128 µg/mL
MIC [3]: > 128 µg/mL
MIC (E. faecalis ATCC 29212): > 128 µg/mL
MIC (S. pneumoniae ATCC 49619): > 128 µg/mL

CC(C)(C)OC(=O)N1CCN(C(=O)C(=O)c2c[nH]c3ccccc23)C(c2c[nH]c3ccccc23)C1 (stereo not drawn) [Compound 6c, tert-Butyl 4-(2-(1H-indol-3-yl)-2-oxoacetyl)-3-(1H-indol-3-yl)piperazine-1-carboxylate]
CMI, mg/L (Ciprofloxacin concentration, mg/L) [13, 15]: 16 (0.25) mg/L
CMI, mg/L (Ciprofloxacin concentration, mg/L) [1, 14]: 0.25 (4) mg/L
MIC [2]: > 128 µg/mL
MIC [3]: > 128 µg/mL
MIC (E. faecalis ATCC 29212): > 128 µg/mL
MIC (S. pneumoniae ATCC 49619): > 128 µg/mL

O=C(C(=O)N1CCCCC1c1c[nH]c2ccc(Br)cc12)c1c[nH]c2ccc(Br)cc12 (stereo not drawn) [Compound 6d, 1-(5-Bromo-1H-indol-3-yl)-2-(2-(5-bromo-1H-indol-3-yl)piperidin-1-yl)ethane-1,2-dione]
CMI, mg/L (Ciprofloxacin concentration, mg/L) [13, 15]: 8 (0.25) mg/L
CMI, mg/L (Ciprofloxacin concentration, mg/L) [1, 14]: <0.125 (4) mg/L
MIC [2]: > 128 µg/mL
MIC [3]: > 128 µg/mL
MIC (E. faecalis ATCC 29212): > 128 µg/mL
MIC (S. pneumoniae ATCC 49619): > 128 µg/mL

CC(C)(C)OC(=O)N1CCN(C(=O)C(=O)c2c[nH]c3ccc(Br)cc23)C(c2c[nH]c3ccc(Br)cc23)C1 (stereo not drawn) [Compound 6f, tert-Butyl 3-(5-bromo-1H-indol-3-yl)-4-(2-(5-bromo-1H-indol-3-yl)-2-oxoacetyl) piperazine-1-carboxylate]
CMI, mg/L (Ciprofloxacin concentration, mg/L) [13, 15]: 1 (0.25) mg/L
CMI, mg/L (Ciprofloxacin concentration, mg/L) ([13]; in the presence of ciprofloxacin 0.5 mg/L (MIC/4)): 1 (0.5) mg/L
CMI, mg/L (Ciprofloxacin concentration, mg/L) [1, 14]: <0.25 (4) mg/L
MIC [2]: > 128 µg/mL
MIC [3]: > 128 µg/mL
MIC (E. faecalis ATCC 29212): > 128 µg/mL
MIC (S. pneumoniae ATCC 49619): > 128 µg/mL

From patent US9321722B2, “Bis-indolic derivatives, their uses in particular as antibacterials” (UNIVERSITE JOSEPH FOURIER, priority 2011, dated 2016)
